In test [1] the test system is phospho-GSK-3β in CD34+ cells from UCB. Description: UCB mononuclear cells treated with PGE2; phospho-GSK-3β expression in CD34+ cells by high-resolution flow cytometry. The class given is cell-based. The settings on record: UCB treated with reagent vehicle (DMSO) versus PGE2. The text has this: Using our high-resolution flow cytometric technology, we have studied HSC for measures of potency. Our conception has been that expression levels of molecules shown to be important for hematopoiesis in experimental studies may have utility in assessing the potency of HSC in terms of engraftment after transplantation.
In order to assess molecular expression level correlates of potency in UCB HSC, we treated UCB mononuclear cells with PGE2 and assessed the expression of […].
This is consistent with our previous finding that phospho-GSK-3β is a potency biomarker.
Background: Flow cytometry measures light scatter and fluorescence of single cells or particles in a stream.

Test [2] relates to UCB HSC. The settings on record: pulse incubation of UCB cells; clinical trial; cited from earlier work.

Structures are written as SMILES.

With `CCCCC[C@H](O)/C=C/[C@H]1[C@H](O)CC(=O)[C@@H]1C/C=C\CCCC(=O)O` [PGE2, Prostaglandin E2], the “expression of phospho-GSK-3β in CD34+ cells” value in test [1] is reported as “able to detect differences in expression of phospho-GSK-3β”. In test [2], the “potency of the HSC in terms of engraftment” value was “enhances the potency of the HSC in terms of engraftment”.
